Source: ChEMBL document CHEMBL1134574, “Synthesis and characterization of non-steroidal ligands for the glucocorticoid receptor: selective quinoline derivatives with prednisolone-equivalent functional activity” (J Med Chem, 2001)

Columns and labels:
Glucocorticoid receptor = target: T1, Glucocorticoid receptor (Homo sapiens, UniProt P04150); experiment: Transcriptional repression activity in HEP G2 cells expressing glucocorticoid receptor compared to Dexamethasone; assay type: functional, cell-based, HepG2
T1 sequence (P04150 whole entry): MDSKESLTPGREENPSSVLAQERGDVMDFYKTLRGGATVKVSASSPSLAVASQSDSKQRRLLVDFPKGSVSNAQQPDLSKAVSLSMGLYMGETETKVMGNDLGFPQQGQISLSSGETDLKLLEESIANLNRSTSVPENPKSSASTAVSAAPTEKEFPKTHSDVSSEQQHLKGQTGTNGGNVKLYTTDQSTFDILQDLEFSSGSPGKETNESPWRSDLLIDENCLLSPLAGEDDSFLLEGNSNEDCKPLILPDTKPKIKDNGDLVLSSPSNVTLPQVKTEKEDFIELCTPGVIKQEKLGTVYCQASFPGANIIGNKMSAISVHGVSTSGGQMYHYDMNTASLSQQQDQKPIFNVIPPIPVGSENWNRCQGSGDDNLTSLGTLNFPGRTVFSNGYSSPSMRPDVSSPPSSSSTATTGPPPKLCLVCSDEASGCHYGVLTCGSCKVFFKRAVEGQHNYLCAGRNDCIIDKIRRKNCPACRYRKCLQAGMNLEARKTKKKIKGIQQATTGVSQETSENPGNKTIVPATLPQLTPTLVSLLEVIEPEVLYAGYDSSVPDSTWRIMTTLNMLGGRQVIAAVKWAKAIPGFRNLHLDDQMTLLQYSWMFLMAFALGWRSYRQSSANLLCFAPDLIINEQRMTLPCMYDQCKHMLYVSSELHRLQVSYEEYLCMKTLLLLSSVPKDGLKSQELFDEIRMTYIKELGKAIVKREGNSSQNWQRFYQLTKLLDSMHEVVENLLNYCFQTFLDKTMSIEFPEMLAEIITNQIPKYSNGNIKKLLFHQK

[1] = target: T2, Mineralocorticoid receptor (Homo sapiens, UniProt P08235); experiment: Binding affinity for mineralocorticoid receptor
T2 sequence (P08235 whole entry): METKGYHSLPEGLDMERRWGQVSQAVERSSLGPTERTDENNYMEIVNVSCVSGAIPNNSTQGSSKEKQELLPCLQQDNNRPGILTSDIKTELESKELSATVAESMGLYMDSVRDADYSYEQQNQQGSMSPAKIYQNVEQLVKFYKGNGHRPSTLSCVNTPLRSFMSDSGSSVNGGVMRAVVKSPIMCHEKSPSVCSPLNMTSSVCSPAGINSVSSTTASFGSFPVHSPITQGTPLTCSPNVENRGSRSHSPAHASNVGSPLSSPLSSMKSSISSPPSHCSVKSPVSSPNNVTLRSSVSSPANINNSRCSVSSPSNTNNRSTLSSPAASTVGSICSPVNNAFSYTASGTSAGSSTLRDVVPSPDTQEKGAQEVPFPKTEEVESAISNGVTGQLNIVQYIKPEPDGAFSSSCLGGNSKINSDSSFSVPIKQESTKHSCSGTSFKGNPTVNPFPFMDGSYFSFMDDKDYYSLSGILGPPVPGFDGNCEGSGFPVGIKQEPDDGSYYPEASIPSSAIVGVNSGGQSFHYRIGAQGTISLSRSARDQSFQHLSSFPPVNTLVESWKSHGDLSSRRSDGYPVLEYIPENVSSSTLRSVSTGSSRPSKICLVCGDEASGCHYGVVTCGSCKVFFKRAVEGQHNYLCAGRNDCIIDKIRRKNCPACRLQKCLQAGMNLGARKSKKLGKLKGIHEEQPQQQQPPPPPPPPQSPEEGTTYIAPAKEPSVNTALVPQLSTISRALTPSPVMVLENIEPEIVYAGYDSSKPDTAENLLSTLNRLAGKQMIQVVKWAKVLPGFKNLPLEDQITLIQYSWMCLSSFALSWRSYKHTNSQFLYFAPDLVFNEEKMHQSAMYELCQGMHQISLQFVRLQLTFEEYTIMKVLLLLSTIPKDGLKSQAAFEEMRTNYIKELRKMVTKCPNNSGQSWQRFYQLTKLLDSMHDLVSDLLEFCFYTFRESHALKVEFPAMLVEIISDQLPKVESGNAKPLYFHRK

Progesterone receptor = target: T3, Progesterone receptor (Homo sapiens, UniProt P06401); experiment: Binding affinity for progesterone receptor
T3 sequence (P06401 whole entry): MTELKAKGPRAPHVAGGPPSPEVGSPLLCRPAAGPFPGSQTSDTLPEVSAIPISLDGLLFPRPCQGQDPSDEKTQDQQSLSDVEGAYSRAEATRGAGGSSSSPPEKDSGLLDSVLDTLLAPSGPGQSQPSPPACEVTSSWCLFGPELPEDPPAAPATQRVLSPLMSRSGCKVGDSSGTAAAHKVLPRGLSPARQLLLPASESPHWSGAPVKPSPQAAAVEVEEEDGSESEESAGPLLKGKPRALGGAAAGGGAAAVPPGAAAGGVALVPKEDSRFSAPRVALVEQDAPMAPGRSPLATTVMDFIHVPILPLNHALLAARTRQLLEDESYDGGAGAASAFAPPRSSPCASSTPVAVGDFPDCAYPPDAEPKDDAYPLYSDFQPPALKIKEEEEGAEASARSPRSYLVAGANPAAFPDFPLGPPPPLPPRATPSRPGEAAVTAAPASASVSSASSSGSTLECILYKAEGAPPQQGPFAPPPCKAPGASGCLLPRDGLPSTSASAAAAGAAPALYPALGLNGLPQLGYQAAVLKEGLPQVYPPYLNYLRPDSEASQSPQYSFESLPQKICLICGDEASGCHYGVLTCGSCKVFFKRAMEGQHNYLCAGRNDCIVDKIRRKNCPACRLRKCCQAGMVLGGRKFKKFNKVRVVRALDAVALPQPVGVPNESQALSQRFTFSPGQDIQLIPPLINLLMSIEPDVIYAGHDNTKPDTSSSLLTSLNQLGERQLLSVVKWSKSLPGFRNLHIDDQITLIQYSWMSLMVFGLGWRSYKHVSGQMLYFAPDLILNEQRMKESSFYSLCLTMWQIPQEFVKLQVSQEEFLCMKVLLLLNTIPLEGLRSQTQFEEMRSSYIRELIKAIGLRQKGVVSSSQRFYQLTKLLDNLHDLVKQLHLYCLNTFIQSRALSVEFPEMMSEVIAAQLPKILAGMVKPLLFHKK

`COc1cccc2c1-c1ccc3c(c1C(c1cccc(OCSC)c1)O2)C(C)=CC(C)(C)N3` (stereo not drawn) was tested, and the IC50 (Glucocorticoid receptor) was 0.004 µM, the Ki [1] was 3.84 µM and the Ki (Progesterone receptor) was greater than 5 µM.
